Results from patent US4171299A, “Polypeptide agents for blocking the human allergic response” (The Regents of the University of California, priority 1976, dated 1979).
Peptide text beside a SMILES is read from it.

Columns and labels:
Type in all cases: in vivo
[1] = target: T1, IgE already bound to mast cell sites (Homo sapiens, UniProt P12319); assay: Displacement test: direct guinea pig antigen skin challenge in a naturally sensitive individual; settings: single sensitive individual; for wheal smaller than at buffered saline diluent site: challenge twenty-four hours after intradermal injection of approx. 2 nM
T1 construct: endogenous in cells; host or cells: skin mast cells of one naturally guinea-pig-sensitive person, carrying own IgE
T1 sequence (P12319 26-257): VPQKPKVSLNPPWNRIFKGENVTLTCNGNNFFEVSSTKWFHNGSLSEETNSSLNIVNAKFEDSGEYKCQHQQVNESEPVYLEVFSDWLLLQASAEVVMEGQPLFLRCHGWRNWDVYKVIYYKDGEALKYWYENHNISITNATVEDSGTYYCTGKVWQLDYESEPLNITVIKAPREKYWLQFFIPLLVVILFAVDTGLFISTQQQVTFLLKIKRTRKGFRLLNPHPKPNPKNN
T1 sequence (Q01362 1-244 partner): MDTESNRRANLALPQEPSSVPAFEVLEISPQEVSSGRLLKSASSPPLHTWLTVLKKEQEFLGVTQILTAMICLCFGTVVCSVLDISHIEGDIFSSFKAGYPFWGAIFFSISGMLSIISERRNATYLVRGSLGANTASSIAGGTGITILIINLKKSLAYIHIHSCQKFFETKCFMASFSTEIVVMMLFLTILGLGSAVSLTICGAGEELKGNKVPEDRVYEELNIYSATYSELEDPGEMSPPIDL
T1 sequence (P30273 19-86 partner): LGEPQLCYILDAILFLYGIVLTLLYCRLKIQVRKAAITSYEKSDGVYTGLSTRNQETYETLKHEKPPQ
Description: It has also been determined that the active polypeptides of the invention appear to have the ability to "displace" IgE from mast cell sites as well as to prevent the binding of IgE to these sites. In a single test, an individual known to have extreme sensitivity to guinea pig antigens, that is a person with a high natural concentration of guinea-pig-antigen-sensitive IgE, was injected with polypeptides in accordance with the invention, and […] reaction to guinea pig antigen was noted.
Specifically, approximately 2 nM each of Asp-Ser-Asp-Pro-Arg and Ala-Asp-Ser-Asp-Pro-Arg were each intradermally injected into 3 marked sites. For comparison, TASME, as well as a control of the buffer diluent alone, was also each injected into 3 marked sites. At one, five and twenty-four hours subsequent to the polypeptide and control injection, one of each peptide and one diluent site were prick-puncture challenged with guinea pig antigen. […] However, at the twenty-four hour challenge, the wheal at the Asp-Ser-Asp-Pro-Arg site was approximately 45% smaller; while at the Ala-Asp-Ser-Asp-Pro-Arg site, the wheal was approximately 23% smaller.

[2] = target: T2, binding sites on mast cells (Homo sapiens, UniProt P12319); assay: Prausnitz-Kustner (P-K) reaction blocking activity assay in human volunteers; settings: for inhibition, individual high: highest individual of six; for inhibition, individual high / inhibition, individual low: same conditions as the average; for inhibition, individual low: lowest individual of six; for average % inhibition (P-K wheal): six individuals, peptide approx. 6 μg/ml, 0.1 ml intradermally per site, 0.05 ml diluted P-K serum containing 0.2 ng IgE, guinea pig antigen prick-puncture, versus control wheal
T2 construct: endogenous in cells; host or cells: skin mast cells of living human volunteers (intradermal injection sites on back or forearm)
T2 sequence (P12319 26-257): T1 sequence (P12319 26-257)
T2 sequence (Q01362 1-244 partner): T1 sequence (Q01362 1-244 partner)
T2 sequence (P30273 19-86 partner): T1 sequence (P30273 19-86 partner)
Description: The "blocking" activity of the polypeptides of the invention can be assayed by utilization of the classic Prausnitz-Kustner (P-K) reaction. In this classic method, a known allergic serum i.e., one that contains IgE specific for a known antigen or allergen is injected intradermally into a human volunteer. After waiting a period of time, e.g. 20 or more hours, the injected sites are then challenged with a prick or injection of a solution of an antigen that is specific for the IgE in the injected serum. Within the next 10 to 30 minutes a positive reaction is evidenced by the development of a wheal (and flare) at the injected site. The more extensive the diameter of the wheal the more intensive is the allergic reaction. That is, a more extensive wheal indicates a greater release of histamine into the tissues at the injected site. Conversely, the development of wheals of lesser diameter or the absence of any wheal at all indicates diminished allergic reaction and/or no allergic reaction at all. The P-K reaction as noted above is a classic test and is universally known and utilized by allergists.
As noted above, the classic P-K reaction is utilized to assay the "blocking" abilities of the polypeptides utilized in the present invention.
The following describes assays of a number of polypeptides useful in the present invention, the synthesis of which was described hereinabove.
All of these assays were performed using a single proven safe P-K donor serum that contains IgE specific for guinea pig allergens.
Peptide solutions were either injected intradermally 1 to 24 hours prior to the P-K serum, or mixed with dilutions of the P-K serum for simultaneous injection. Initial tests were performed using the P-K serum at from 1:4 to 1:200 dilutions. Further studies were run at a fixed P-K dilution of 1:32 while the invention peptide solutions were varied to contain from about 1 mM to […] of the peptide being tested. Injected sites on the volunteers were challenged by prick-puncture of guinea pig BCA 1:40 w/v (purchased from Berkeley Biologicals, Inc.).
Human volunteers were chosen who had serum IgE levels below 100 U/ml (242 ng/ml) which levels have been previously shown to assure successful P-K reactivity. […] P-K and skin tests were performed on the back and/or forearm. Multiple test sites of approximately 25 mm diameter were circled with a marking pen and all injections were made within the circled skin areas.
A typical sequence of events was intradermal injection of 0.1 ml of the peptide solution or control buffered saline diluent solution; followed in 1 to 24 hours by intradermal injection of 0.05 ml. of P-K serum into each of the previously injected sites. After 20 to 24 hours had elapsed, each site was prick-punctured with the antigen solution, blotted dry in 5 minutes and measurements of the wheal and flare in both their narrowest and widest diameter were made three times, usually 15, 20 and 25 minutes after prick-punctures.
Blocking activity assays were undertaken with the following polypeptides: Asp-Pro-Arg; Ser-Asp-Pro-Arg; Asp-Ser-Asp-Pro-Arg; and Ala-Asp-Ser-Asp-Pro-Arg. For comparison testing, Asp-Thr-Glu-Ala-Arg and tosyl-L-arginine sarcosine methylester (TASME), were also synthesized and tested.
The above-noted polypeptides were assayed as noted above on six different individuals. Results were as follows:
The results, as noted above, present the average of measurements at three time intervals, in duplicate, for each reaction in each individual, subtracted from the average control wheal measurements, and divided by the average measurement of each individual's control wheal. Control wheals in different individuals varied from 8 to 40 mm^2 with a mean of 17 mm^2. Each peptide was utilized at approximately 6 μg/ml dilution and 0.1 ml. was injected at each site, followed by 0.05 ml. of diluted P-K serum containing 0.2 ng. of IgE. […]

DBA white mice = assay: Acute toxicity in DBA white mice; settings: 24 to 72 hours post-injection; for post-mortem gross and microscopic examination of tissues and organs: 1.4 ml i.d./s.c./i.v./i.p.
Description: Acute toxicity was determined as follows:
DBA white mice (average weight 15 g.) were each injected with 1.4 ml. of a solution of the peptide in phosphate buffered saline, pH 7.4, as follows:
0.1 ml.×3 --subcutaneously
0.6 ml.--intraperitoneally
The peptides and concentrations used were as follows:
Ala-Asp-Ser-Asp-Pro-Arg (Example 4)--5 μg/ml--(375 mg/kg)--6 mice
Asp-Ser-Asp-Pro-Arg (Example 3)--10 μg/ml--(1 mg/kg)--8 mice
Asp-Ser-Asp-Pro-Arg (Example 3)--13 μg/ml--(1.3 mg/kg)--8 mice

Which results are given for `C[C@H](N)C(=O)N[C@@H](CC(=O)O)C(=O)N[C@@H](CO)C(=O)N[C@@H](CC(=O)O)C(=O)N1CCC[C@H]1C(=O)N[C@@H](CCCNC(=N)N)C(=O)O` [Ala-Asp-Ser-Asp-Pro-Arg] (H-ADSDPR-OH)?
wheal smaller than at buffered saline diluent site [1]: approximately 23%; inhibition, individual high [2]: 61%; inhibition, individual low [2]: 10%; average % inhibition (P-K wheal) [2]: 46%; post-mortem gross and microscopic examination of tissues and organs (DBA white mice; 5 μg/ml (375 mg/kg), 6 mice): no local or systemic toxicological abnormalities; survival of mice (DBA white mice; 5 μg/ml (375 mg/kg), 6 mice): all still living

`N=C(N)NCCC[C@H](NC(=O)[C@@H]1CCCN1C(=O)[C@@H](N)CC(=O)O)C(=O)O` [Asp-Pro-Arg] (H-Asp-Pro-Arg-OH) was tested. Which “inhibition, individual high” value [2] did it give?
The value was 38%.

What about the “inhibition, individual low” value [2] of the same molecule?
Its value is 0%.

What about the “average % inhibition (P-K wheal)” value [2] of the same molecule?
Its value is 15%.

Which results are given for `N=C(N)NCCC[C@H](NC(=O)[C@@H]1CCCN1C(=O)[C@H](CC(=O)O)NC(=O)[C@H](CO)NC(=O)[C@@H](N)CC(=O)O)C(=O)O` [Asp-Ser-Asp-Pro-Arg] (H-DSDPR-OH)?
wheal smaller than at buffered saline diluent site [1]: approximately 45%; inhibition, individual high [2]: 89%; inhibition, individual low [2]: 60%; average % inhibition (P-K wheal) [2]: 72%; post-mortem gross and microscopic examination of tissues and organs (DBA white mice; 10 μg/ml (1 mg/kg), 8 mice): no local or systemic toxicological abnormalities; survival of mice (DBA white mice; 10 μg/ml (1 mg/kg), 8 mice): all still living; post-mortem gross and microscopic examination of tissues and organs (DBA white mice; 13 μg/ml (1.3 mg/kg), 8 mice): no local or systemic toxicological abnormalities; survival of mice (DBA white mice; 13 μg/ml (1.3 mg/kg), 8 mice): all still living

For `C[C@H](NC(=O)[C@H](CCC(=O)O)NC(=O)[C@@H](NC(=O)[C@@H](N)CC(=O)O)[C@@H](C)O)C(=O)N[C@@H](CCCNC(=N)N)C(=O)O` [Asp-Thr-Glu-Ala-Arg, reference compound] (H-DTEAR-OH), which “inhibition, individual high” value [2] is on record?
Its value is 80%.

And the “inhibition, individual low” value [2]?
Its value is 30%.

And the “average % inhibition (P-K wheal)” value [2]?
The value was 58%.

With `N=C(N)NCCC[C@H](NC(=O)[C@@H]1CCCN1C(=O)[C@H](CC(=O)O)NC(=O)[C@@H](N)CO)C(=O)O` [Ser-Asp-Pro-Arg] (H-SDPR-OH) as the molecule, how does the “inhibition, individual high” value [2] read?
Its value is 50%.

What about the “inhibition, individual low” value [2] of the same molecule?
Its value is 0%.

What about the “average % inhibition (P-K wheal)” value [2] of the same molecule?
Its value is 18%.

What does the source list for “tosyl-L-arginine sarcosine methylester [TASME, reference compound]”?
inhibition of the wheal and flare reaction ([1]; challenge one and five hours after intradermal injection of approx. 2 nM): No inhibition; wheal smaller than at buffered saline diluent site [1]: No reduction in the size of the wheal; inhibition, individual high [2]: 40%; inhibition, individual low [2]: 0%; average % inhibition (P-K wheal) [2]: 24%
